According to patent US6800464B2, “Arthrobacter D-carbamoylase and methods of preparing enantiomerically enriched D-amino acids” (Degussa AG, priority 2001, dated 2004):
Where two headings read alike, the source gives them in different places.

How the values were obtained:
[1] = molecular target: D-carbamoylase from Arthrobacter crystallopoietes DSM 20117 (Crystallibacter crystallopoietes, UniProt A0A1H1C375); test: Substrate specificity of the purified D-carbamoylase (relative conversion of carbamoyl substrates); assay type: biochemical; details: for Rel. act. / conversion of substrate (in words): 30° C.; for Rel. act.: 0.1 M potassium phosphate buffer pH 8.0, 20 mM isomer mixture or 10 mM pure isomer, D,L-Carbamoyl-phenylalanine set at 100% (2 U/mg); for conversion of substrate (in words): assay conditions of substrate spectrum, pH 8.0
Description: (§1) The homogeneously purified D-carbamoylase with the His-tag and ttg start codon (pMW1 —FIG. 5) was used for characterization of the enzyme obtained in this way. The enzyme was present in 0.1 M KPB pH 8.0.
To determine the substrate spectrum, the enzyme was incubated at a reaction temperature of 30° C. with the particular substrate in the presence of 0.1 M potassium phosphate buffer pH 8.0. To ensure the same concentration of the D-isomer, if the substrate was present as an isomer mixture a concentration of 20 mM was established; if the substrate was present as a pure isomer a concentration of 10 mM was established.

purified D-carbamoylase = test: Cofactor dependence: inactivation by complexing agents and sulfhydryl reagents, reactivation by metal ions; assay type: biochemical, Arthrobacter crystallopoietes DSM 20117; details: for inactivation of the enzyme by complexing agent: 10 mM, incubation at 25° C., 8-HQSA: within less than two hours
Description: as §1
In order to be able to differentiate the inactivation by the complexing agent from the thermal inactivation, an aliquot of the enzyme solution was co-incubated without 8-HQSA and the activity was monitored with respect to time. It was concluded that to reactivate the enzyme, the 8-HQSA had to be removed from the enzyme by gel filtration, and incubation had to be carried out in the presence of 2 mM metal ions. However, neither Cu^2+, Co^2+, Mn^2+, Mg^2+, Fe^2+ nor Zn^2+ led to a reactivation of the enzyme.

[2] = substrate: NC(=O)N[C@H](Cc1c[nH]c2ccccc12)C(=O)O; test: Determination of kinetic parameters (Km, vmax) of the D-carbamoylase; assay type: biochemical, Arthrobacter crystallopoietes DSM 20117; details: other: Michaelis-Menten kinetics, Enzymfit program; pH 8.0
Description: as §1
For determination of Vmax and Km, the rate of reaction v was plotted as a function of the substrate concentration. The calculation of the kinetic parameters was carried out via the Enzymfit program (developed at the Institute of Bioprocess Technology, University of Stuttgart). […] The reaction can be described here by Michaelis-Menten kinetics (see equation 1). [formula]

[3] = Determination of the optimum pH of the purified D-carbamoylase; assay type: biochemical; details: pH range 6.5 to 9.0, DL-C-phenylalanine, 30° C., 100 mM buffers
Description: To determine the optimum pH of the purified D-carbamoylase, conversions were carried out at various pH values in a range from 6.5 to 9.0 with DL-C-phenylalanine as the substrate at 30° C. In order to be able to rule out concentration effects, the buffer concentration of all the buffers used (Tris, potassium phosphate and Tris-glycine) was adjusted to a value of 100 mM. The activity maximum of the D-carbamoylase was at pH 8.

CSCCC(NC(N)=O)C(=O)O (racemic) [D,L-Carbamoyl-methionine]
Rel. act. [1]: 13%

CC(C)[C@H](NC(N)=O)C(=O)O [L-carbamoyl-valine]
conversion of substrate (in words) [1]: not converted

O=S(=O)(O)c1ccc(O)c2ncccc12 [8-hydroxyquinolinesulfonic acid]
inactivation of the enzyme by complexing agent (purified D-carbamoylase): compete inhibition

C[C@@H](NC(N)=O)C(=O)O [D-Carbamoyl-alanine]
Rel. act. [1]: 510% | conversion relative to all other substrates ([1]; compared with all other substrates of table 5): at least five times better

NC(=O)NC(CO)C(=O)O (racemic) [D,L-Carbamoyl-serine]
Rel. act. [1]: 35%

O=C(O)CN(CCN(CC(=O)O)CC(=O)O)CC(=O)O [EDTA]
inactivation of the enzyme by complexing agent (purified D-carbamoylase): no inactivation

O=C(O)c1ccccc1[N+](=O)[O-] [2-nitrobenzoate]
inactivation of the D-carbamoylase by sulfhydryl reagents (purified D-carbamoylase; 1 mM): complete inactivation

O=C(O)c1cc[c]([Hg][Cl])cc1 [para-chloro-mercury benzoate]
inactivation of the D-carbamoylase by sulfhydryl reagents (purified D-carbamoylase; 1 mM): complete inactivation

β-Ureido-propionate
Rel. act. [1]: 0% | conversion of substrate (in words) [1]: not converted

CC(C)C(NC(N)=O)C(=O)O (racemic) [D,L-Carbamoyl-valine]
Rel. act. [1]: 31%

O=C(O)CI [iodine acetate]
inactivation of the D-carbamoylase by sulfhydryl reagents (purified D-carbamoylase): complete inactivation

CC(C)(C)C(NC(N)=O)C(=O)O (racemic) [D,L-Carbamoyl-tert-leucine]
Rel. act. [1]: 18%

NC(=O)N[C@H](Cc1c[nH]c2ccccc12)C(=O)O [D-Carbamoyl-tryptophan]
Rel. act. [1]: 80%

NC(=O)N[C@@H](Cc1c[nH]c2ccccc12)C(=O)O [L-carbamoyl-tryptophan]
conversion of substrate (in words) [1]: not converted

B1: D-carbamoylase from Arthrobacter crystallopoietes DSM 20117 (Crystallibacter crystallopoietes) (protein)
chain: MAKNLMLAVAQVGGIDSSESRPEVVARLIALLEEAASQGAELVVFPELTLTTFFPRTWFEEGDFEEYFDKSMPNDDVAPLFERAKDLGVGFYLGYAELTSDEKRYNTSILVNKHGDIVGKYRKMHLPGHADNREGLPNQHLEKKYFREGDLGFGVFDFHGVQVGMCLCNDRRWPEVYRSLALQGAELVVLGYNTPDFVPGWQEEPHAKMFTHLLSLQAGAYQNSVFVAAAGKSGFEDGHHMIGGSAVAAPSGEILAKAAGEGDEVVVVKADIDMGKPYKESVFDFAAHRRPDAYGIIAERKGRGAPLPVPFNVND
Km [2]: 7.5 mM | Vmax [2]: 2.4 U/mg

B2: D-carbamoylase: homogeneously purified recombinant D-carbamoylase from Arthrobacter crystallopoietes DSM 20117 (SEQ ID NO: 2) (protein)
chain: MAKNLMLAVAQVGGIDSSESRPEVVARLIALLEEAASQGAELVVFPELTLTTFFPRTWFEEGDFEEYFDKSMPNDDVAPLFERAKDLGVGFYLGYAELTSDEKRYNTSILVNKHGDIVGKYRKMHLPGHADNREGLPNQHLEKKYFREGDLGFGVFDFHGVQVGMCLCNDRRWPEVYRSLALQGAELVVLGYNTPDFVPGWQEEPHAKMFTHLLSLQAGAYQNSVFVAAAGKSGFEDGHHMIGGSAVAAPSGEILAKAAGEGDEVVVVKADIDMGKPYKESVFDFAAHRRPDAYGIIAERKGRGAPLPVPFNVND
modifications: OTHER INFORMATION: … DNA
activity maximum (optimum pH) [3]: 8
